This is an account of results in patent US20250312271A1, “GSK-3-BETA INHIBITOR-LOADED POLYMERIC SCAFFOLDS FOR THE TREATMENT OF MUSCLE INJURIES” (Rutgers, The State University of New Jersey, priority 2024, published 2025).

Data set [1] concerns adipose-derived stem cells (ADSCs). Put plainly: Oil Red O quantification of lipid formation in adipogenic ADSC cultures. Format: cell-based. Here is the method:
(§1) Rosiglitazone (AVANDIA®) was added to the adipogenic medium at a final concentration of 1 μM before use. A PrestoBlue™ assay and a LIVE/DEAD viability/cytotoxicity kit were utilized to assess cell viability. Live and dead cell counts were obtained using a Celigo Image Cytometer. Cells were fixed in 4% PFA (paraformaldehyde) and stained with Oil Red O to measure lipid formation as a sign of adipocyte differentiation. Lipid formation was quantified by assessing the absorbance of Oil Red O at 515 nm.

The subject of data set [2] is bone marrow-derived human mesenchymal stem cells (hMSCs). The data set can be described thus: Oil Red O quantification of lipid formation in adipogenic hMSC cultures. Format: cell-based. Here is the method: as §1
Data set [3] deals with hMSCs. Put plainly: PrestoBlue assay of hMSCs. It is filed as cell-based, human. The note with it: day 7, 14, 18, 0.5, 1.0, 1.5 μM. Here is the method:
as §1

The subject of data set [4] is hMSCs. The data set can be described thus: Live/Dead quantification of hMSCs. It is filed as cell-based, human. The note with it: day 7, 14, 18, 0.5, 1.0, 1.5 μM. As to the method: as §1
Data set [5] concerns ADSCs. The data set can be described thus: PrestoBlue assay of ADSCs. It is filed as cell-based. The note with it: day 7, 14, 21, 0.5, 1.0, 1.5 μM. As to the method: as §1
The subject of data set [6] is ADSCs. The data set can be described thus: Live/Dead quantification of ADSCs. Format: cell-based. As to the method: as §1
Data set [7] in a line: CHIR99021 release from polymeric scaffolds (HPLC). Format: physicochemical. As to the method:
In this study, GSK3β inhibitor-loaded scaffolds were fabricated via electrospinning and hydrogel formation. Pluronic F127 (0.08 g) was dissolved in 1.0 ml hexafluoroisopropanol (HFP) before adding the GSK3β inhibitor. Separately, poly(lactic-co-glycolic acid) PLGA (50:50) (16%, w/v) was dissolved in HFP. The polymer solutions (PLGA/CHIR-F127 or PLGA/CHIR) were electrospun at a flow rate of 1.0 ml/h with a 14 cm distance from the 18G needle tip to the cylindrical drum, and voltages +11/−2 kV were applied. Samples (13.5 mm diameter) punched out from scaffolds were immersed in GelMA (gelatin methacrylate) (5%, w/v)/CHIR solution for 20 seconds, then crosslinked using Lithium Phenyl (2,4,6-Trimethylbenzoyl) Phosphinate (LAP, 0.5% w/v) for 2 minutes on each side under 405 nm UV. Scaffolds comprise a rapidly degrading layer of GelMA for inhibitor delivery to the injury site, and a slow-degrading layer of PLGA to provide prolonged support for tissue regeneration.
Samples were submerged in water on a plate shaker at 400 rpm, with 200 μL replaced by fresh water at each time point.

The test system of data set [8] is human skeletal muscle cells (hSkMCs). The data set can be described thus: Morphological assessment of lipid droplets in hSkMCs cultured with scaffolds. The note with it: drug in both GelMA and PLGA layers. It is filed as cell-based. As to the method:
Human skeletal muscle cells ([…]) (5,000 cells/cm^2) were cultured in ADM and myogenic differentiation media (myodiff) with scaffolds at 200 rpm, with and without the drug in GelMA and PLGA layers to evaluate the relationship between drug concentrations and lipid formation resulting from the drug's release from the scaffold. PrestoBlueTM assay assessed cell viability.

Another data set relates to 3T3-L1 preadipocytes. The note with it: cited from earlier work.
In the next data set the test system is PPARγ. The note with it: 3T3-L1 preadipocytes; cited from earlier work.

Each structure is given as a SMILES string. “Also recorded” adds a separate entry of the source.

On to `Cc1cnc(-c2cnc(NCCNc3ccc(C#N)cn3)nc2-c2ccc(Cl)cc2Cl)[nH]1` [CHIR99021], for which the “difference in lipid formation in groups treated with CHIR99021” value in data set [1] (ADSCs at 21 days, One-Way ANOVA, P=0.00003) is “significant difference”; in data set [2] (hMSCs at 18 day, One-Way ANOVA, P=0.0000018), “significant difference”. Besides, the “lipid droplet formation (Oil Red O)” value in data set [1] (ADSCs in ADM, CHIR99021 0.5, 1.0, 1.5 μM) is “decreases; also recorded: inhibited lipid formation”; in data set [2] (hMSCs in ADM, CHIR99021 0.5, 1.0, 1.5 μM), “decreases”. Besides, the “cellular metabolic activity (PrestoBlue)” value with hMSCs [3] and with ADSCs [5] was “does not negatively alter” each time. The “viability (Live/Dead)” value is “does not negatively alter” in the data set on hMSCs [4] and “does not negatively alter” with ADSCs [6] (day 7, 14, 21, 0.5, 1.0, 1.5 μM). The “percent of dead cells, ADSCs in GM versus in 1.5 μM CHIR” value with ADSCs [6] (day 21, 1.5 μM CHIR) is given as “No significant difference”. For the same compound, the release kinetics profile entry in data set [7] (from polymeric scaffolds (PLGA nanofibers), in water) was “first-order”. Further, the release in data set [7] (within 72 hours, from polymeric scaffolds) is about 70%. Further, the “lipid droplet suppression, CHIR99021 in both GelMA and PLGA layers” value in data set [8] is listed as “enhances this effect”. In the data set with 3T3-L1 preadipocytes, the “differentiation of 3T3-L1 preadipocytes (Oil Red O staining)” value is listed as “blocked the differentiation”. Also, in the data set on PPARγ, the PPARγ expression result is recorded as “induced”.
